The source of these data is ChEMBL document CHEMBL1165911, “Elaborate ligand-based pharmacophore exploration and QSAR analysis guide the synthesis of novel pyridinium-based potent beta-secretase inhibitory leads” (Bioorg Med Chem, 2010).

pIC50: −log10 of the molar value.

For assay [1], the target named is T1, Beta-secretase 1 (Homo sapiens, UniProt P56817).
Description: Inhibition of BACE1 after 2 hrs by FRET assay
Assay [2] addresses T1, Beta-secretase 1. Description: Inhibition of BACE1 at 50 uM after 2 hrs by FRET assay.
The next assay has as its target T2, Renin (Homo sapiens) (UniProt P00797).
T2 sequence (whole entry): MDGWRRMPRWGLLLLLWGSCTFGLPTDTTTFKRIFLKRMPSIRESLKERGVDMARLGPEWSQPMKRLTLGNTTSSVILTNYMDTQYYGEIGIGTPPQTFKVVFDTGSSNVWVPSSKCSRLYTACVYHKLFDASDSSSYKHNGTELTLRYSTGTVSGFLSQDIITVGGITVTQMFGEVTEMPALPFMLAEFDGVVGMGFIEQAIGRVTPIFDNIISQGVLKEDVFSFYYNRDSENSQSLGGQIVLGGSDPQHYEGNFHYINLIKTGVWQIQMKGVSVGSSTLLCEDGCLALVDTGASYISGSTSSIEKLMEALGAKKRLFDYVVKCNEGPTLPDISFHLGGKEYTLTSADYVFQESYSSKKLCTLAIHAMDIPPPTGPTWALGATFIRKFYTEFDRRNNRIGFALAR
The assay can be described thus: Inhibition of renin at 50 uM after 30 mins by fluorometric assay.

T1 sequence (P56817 whole entry): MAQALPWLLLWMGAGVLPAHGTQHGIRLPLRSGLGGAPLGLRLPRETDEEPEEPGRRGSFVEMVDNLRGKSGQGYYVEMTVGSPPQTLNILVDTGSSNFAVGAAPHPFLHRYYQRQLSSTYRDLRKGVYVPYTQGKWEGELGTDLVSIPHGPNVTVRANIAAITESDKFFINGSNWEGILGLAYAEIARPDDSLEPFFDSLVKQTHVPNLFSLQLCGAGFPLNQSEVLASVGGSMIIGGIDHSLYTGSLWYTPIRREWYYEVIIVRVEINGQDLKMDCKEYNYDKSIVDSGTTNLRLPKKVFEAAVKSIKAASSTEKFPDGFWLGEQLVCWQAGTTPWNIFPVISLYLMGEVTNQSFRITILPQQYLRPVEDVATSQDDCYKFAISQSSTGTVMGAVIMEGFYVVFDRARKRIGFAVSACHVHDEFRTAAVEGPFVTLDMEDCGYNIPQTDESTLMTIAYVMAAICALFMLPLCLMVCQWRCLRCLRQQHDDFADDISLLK

As a reminder, the pIC50 is −log10 of the IC50, conventionally taken in molar units. A high value points to a small IC50. The inhibition is the change of the read-out against control, counted positive when it falls. Read a low inhibition as a weak effect. `COc1ccc(NC(=O)c2cccc(NC(=O)C[n+]3ccccc3)c2)cc1`: the pIC50 against Beta-secretase 1 [1] is 5.43. In addition, the inhibition against Beta-secretase 1 [2] was determined as 100%; against Renin (Homo sapiens) it was 0%.

Take `COc1ccc(NC(=O)c2cccc(NC(=O)C[n+]3cccc(C(N)=O)c3)c2)cc1`: the negative logarithm of the IC50 (pIC50) against Beta-secretase 1 [1] is 5.72. The inhibition at Beta-secretase 1 [2] is 100%; on Renin (Homo sapiens) it was 0%.

Compound `O=C(C[n+]1cccc(C(=O)NCCc2ccccc2)c1)Nc1cccc(C(=O)Nc2ccc(Cl)cc2)c1` showed a pIC50 at Beta-secretase 1 [1] of 4.92. Further, the values for the inhibition against Beta-secretase 1 [2] and at Renin (Homo sapiens) were 78% and 26%, respectively.

`Cc1ccc(C(=O)Nc2cccc(NC(=O)C[n+]3cccc(C(=O)NCCc4ccccc4)c3)c2)cc1` showed a negative-log IC50 (pIC50) on Beta-secretase 1 [1] of 5.66. In addition, the inhibition was determined as 100% on Beta-secretase 1 [2] and 22% at Renin (Homo sapiens).

On Beta-secretase 1 [1], `Cc1ccc(C(=O)Nc2cccc(NC(=O)C[n+]3ccccc3)c2)cc1` showed a negative-log IC50 (pIC50) of 4.89. Moreover, the inhibition on Beta-secretase 1 [2] is 68%; at Renin (Homo sapiens), 0%.

Regarding `Cc1ccc(NC(=O)c2cccc(NC(=O)C[n+]3cccc(C(=O)NCCc4ccccc4)c3)c2)cc1`, on Beta-secretase 1 [1], the negative logarithm of the IC50 (pIC50) is 5.40. The results for the inhibition at Beta-secretase 1 [2] and at Renin (Homo sapiens) were 72% and 26%, respectively.

For the compound `O=C(C[n+]1ccccc1)Nc1cccc(C(=O)Nc2ccc(Cl)cc2)c1`, on Beta-secretase 1 [1], the pIC50 was 6.00. The inhibition against Beta-secretase 1 [2] is 100%; against Renin (Homo sapiens) it was 0%.
